Reference: patent US20230112845A1, “COMPOSITIONS OF BERBERINE URSODE[…] METHODS THEREOF FOR TREATING FATTY LIVER DISEASE, DIABETES AND HYPERLIPIDEMIA” (SHENZHEN HIGHTIDE BIOPHARMACEUTICAL LTD., priority 2020, published 2023)

Tested on: subjects with a history of hypercholesterolemia
Assay: Phase 1b randomized placebo-controlled dose-ranging study: serum lipids, lipoproteins, HbA1c, ALT
Format: in vivo, human
Parameters: TG (serum level) / TC (serum level) / Non-HDL-c (serum level) / HDL-c (serum level): unit not given here; LDL-c (serum level): unit: mmol/L
Method: A double-blind, randomized, placebo-controlled, dose ranging study was carried out that compared three doses of berberine ursodeoxycholate (BUDCA, a.k.a. HTD1801) to placebo in a cohort of subjects with a history of hypercholesterolemia and serum LDL-c levels above 2.59 mmol/L (>99.9 mg/dL). BUDCA was administered in two divided doses each day for 28 days. The primary endpoints of the study were safety and tolerability of this new compound, as well as its effect in lowering serum lipid and lipoprotein concentrations.
Adult subjects were recruited and enrolled into this double-blind, randomized placebo-controlled dose ranging study at one of three research units in Australia between April and December of 2018. The key entry criteria were hypercholesterolemia, with serum LDL-c >2.59 mmol/L (>99.9 mg/dL) and overweight or obesity (BMI between 25 and 40 kg/m^2). […] Subjects were asked to discontinue the use of lipid-lowering medications at least 28 days prior to their first dose of BUDCA and for the duration of the study.
Subjects underwent an initial assessment and were then randomized to receive ascending doses of BUDCA in three sequential dosing groups: Group I received 500 mg/day of BUDCA or matching placebo in a ratio of 3:1. Group II received 1,000 mg/day of BUDCA or placebo, 3:1 and Group III received 2,000 mg/day BUDCA or placebo, 3:1. Study medication or placebo was given in two equal doses daily for 28 days. The investigational product BUDCA was administered in the form of film-coated tablets, each tablet containing 250 mg of BUDCA. The placebo was identical in appearance to the active agent. Subjects were instructed to take their tablets after breakfast and after dinner respectively with a glass of water.
The groups were enrolled sequentially, but follow-up overlapped (the next cohort could begin during the follow-up period of the prior cohort) (FIG. 1). The decision to move to the next dose level was based upon tolerability and safety findings, as assessed by a Safety Monitoring Committee. Individual subjects were admitted overnight for their first and last doses and so as to draw blood samples for pharmacokinetic studies; in between, they were seen every few days. Subjects were asked to arrive in a fasting state (typically overnight). After having vital signs measured and baseline laboratory tests taken, the subject was given a morning meal and then observed while taking their first dose of BUDCA with a glass of water. They stayed overnight to allow sampling for PK studies which were drawn at the following time points −18 hours, −12, −6, 0 time (pre-dose), +0.25 (post-dose), +0.5, +1, +2, +3, +4, +8, +12, +24 hours. Blood samples for PK studies were collected in dipotassium ethylene diamine tetra-acetic acid (K2EDTA) as the anticoagulant and the assays were done on plasma.
Blood samples for serum biochemistry (including lipid levels) and blood counts were drawn with subjects in a fasting state, at baseline and every 14 days through the study. Samples were shipped in a refrigerated state to laboratory where testing was done using routine clinical methodology, as follows: HbA1c was measured by ion-exchange HPLC (Bio-Rad D-100). For samples received by the laboratory prior to Sep. 2, 2018, the following analytes were measured on the Roche Diagnostics Modular P100 platform (ALT by photometric assay, TC by Trinder peroxidase assay, LDL-c by photometric assay, HDL-c by homogenous enzymatic colorimetric assay and TG by photometric assay). For samples received by the laboratory after Sep. 2, 2018, the following analytes were measured on the Beckman Coulter AU 5800 platform (ALT by photometric assay, TC by cholesterol-oxidase/peroxidase assay, LDL-c by homogenous enzymatic colorimetric assay, HDL-c by immune inhibition and cholesterol oxidase assay and TG by an enzymatic method using opiase/GK/GPO-PAP-4 amino phenazone). […]

[1] = highest dose (2,000 mg per day), day 28

COc1ccc2cc3[n+](cc2c1OC)CCc1cc2c(cc1-3)OCO2.C[C@H](CCC(=O)[O-])[C@H]1CC[C@H]2[C@@H]3[C@@H](O)C[C@@H]4C[C@H](O)CC[C@]4(C)[C@H]3CC[C@]12C [BUDCA, berberine ursodeoxycholate]
HDL-c (serum level) (500 mg/day, Day 14, baseline 1.25, P vs. placebo n.s.): 1.22
TG (serum level) (500 mg/day, Day 14, baseline 2.11, P vs. placebo n.s.): 1.89
LDL-c (serum level) (500 mg/day, Day 14, baseline 4.01, P vs. placebo n.s.): 3.87
Non-HDL-c (serum level) (500 mg/day, Day 14, baseline 4.85, P vs. placebo n.s.): 4.75
TC (serum level) (500 mg/day, Day 14, baseline 6.13, P vs. placebo n.s.): 5.96
HDL-c (serum level) (500 mg/day, Day 28, baseline 1.25, P vs. placebo n.s.): 1.17
TG (serum level) (500 mg/day, Day 28, baseline 2.11, P vs. placebo n.s.): 2.27
LDL-c (serum level) (500 mg/day, Day 28, baseline 4.01, P vs. placebo n.s.): 3.72
Non-HDL-c (serum level) (500 mg/day, Day 28, baseline 4.85, P vs. placebo 0.03): 4.71
TC (serum level) (500 mg/day, Day 28, baseline 6.13, P vs. placebo n.s.): 5.88
HDL-c (serum level) (1,000 mg/day, Day 14, baseline 1.32, P vs. placebo n.s.): 1.29
TG (serum level) (1,000 mg/day, Day 14, baseline 1.76, P vs. placebo n.s.): 1.73
LDL-c (serum level) (1,000 mg/day, Day 14, baseline 3.68, P vs. placebo n.s.): 3.42
Non-HDL-c (serum level) (1,000 mg/day, Day 14, baseline 4.48, P vs. placebo n.s.): 4.23
TC (serum level) (1,000 mg/day, Day 14, baseline 5.81, P vs. placebo n.s.): 5.51
HDL-c (serum level) (1,000 mg/day, Day 28, baseline 1.32, P vs. placebo n.s.): 1.23
TG (serum level) (1,000 mg/day, Day 28, baseline 1.76, P vs. placebo 0.028): 1.86
LDL-c (serum level) (1,000 mg/day, Day 28, baseline 3.68, P vs. placebo n.s.): 3.51
Non-HDL-c (serum level) (1,000 mg/day, Day 28, baseline 4.48, P vs. placebo 0.025): 4.31
TC (serum level) (1,000 mg/day, Day 28, baseline 5.81, P vs. placebo n.s.): 5.54
HDL-c (serum level) (2,000 mg/day, Day 14, baseline 1.24, P vs. placebo n.s.): 1.33
TG (serum level) (2,000 mg/day, Day 14, baseline 1.60, P vs. placebo n.s.): 1.42
LDL-c (serum level) (2,000 mg/day, Day 14, baseline 3.85, P vs. placebo 0.0093): 3.40
Non-HDL-c (serum level) (2,000 mg/day, Day 14, baseline 4.62, P vs. placebo 0.0018): 4.04
TC (serum level) (2,000 mg/day, Day 14, baseline 5.91, P vs. placebo 0.01): 5.37
HDL-c (serum level) (2,000 mg/day, Day 28, baseline 1.24, P vs. placebo n.s.): 1.29
TG (serum level) (2,000 mg/day, Day 28, baseline 1.60, P vs. placebo 0.0018): 1.54
LDL-c (serum level) (2,000 mg/day, Day 28, baseline 3.85, P vs. placebo 0.091): 3.44
Non-HDL-c (serum level) (2,000 mg/day, Day 28, baseline 4.62, P vs. placebo 0.0002): 4.14
TC (serum level) (2,000 mg/day, Day 28, baseline 5.91, P vs. placebo 0.003): 5.42
ALT level during therapy (500-2,000 mg/day, 28 days): did not change significantly
HbA1C level during therapy (500-2,000 mg/day, 28 days): did not change significantly
serum lipid levels among subjects receiving active therapy (500-2,000 mg/day, maximum reductions relative to placebo after 14 days): decreased in a dose-dependent fashion
change in HDL-c concentration [1]: no significant changes
change in TG concentration [1]: no significant changes
reduction in the serum concentration of TC (highest dose (2,000 mg per day), day 28, P=0.0004): 8.2%
reduction in the serum concentration of LDL-c (highest dose (2,000 mg per day), day 28, P=0.0006): 10.4%
